Source: patent US11851459B2, “Methods and uses of modulators of anaphase promoting complex (APC) activity for treating cancer” (University of Saskatchewan, priority 2018, dated 2023)
“Also recorded” adds a separate entry of the source.

Key:
APC (substrate Cyclin B) = experiment: Cyclin B protein levels in MCF7 cells; format: cell-based, human; details: MCF7, 48 hrs; 1 mM metformin or transient transfection of peptide plasmid
Protocol: MCF7 breast cancer cells were treated with 1 mM metformin or transiently transfected with an APC activating peptide (C43-4) for 48 hrs, then harvested for assessment of Cyclin B protein levels. Cyclin B is an APC target.
(§1) A mouse model for growing patient derived breast tumor cells obtained from a patient with triple negative breast cancer was developed. This patient had developed resistance to Doxorubicin. Tumors growing in these mice grow rapidly. Mice growing the patient derived xenografted (PDX) tumor were injected with various amounts of M2I-1. […] Since the APC was activated in the canines tested in this study following treatment with metformin, it was asked if metformin can directly activate the APC. Reduced APC substrate Cyclin B levels following metformin treatment in human MCF7 breast cancer cells was observed, similar to that observed when MDF7 cells express the C43-4 plasmid (see below for more on this plasmid) (FIG. 21).

[1] = tested on: multiple drug resistant breast cancer; details: cited from earlier work
MDA-MB-231 cells = experiment: Scratch assay, migration of MDA-MB-231 cells; format: cell-based, human
Protocol: A. An equal number of MDA-MB-231 TNBC cells were grown to confluence in 6 well plates. The cells were then treated with increasing doses of metformin (0, 1, 5 and 10 mM) and a scratch was made in the cell lawn creating a void. At the times shown the number of cell that migrated into the void were counted. The experiment was repeated twice. B. WT MDA-MB-231 cells and cells stably expressing the C43-4 plasmid were grown as in A. Control cells were left untreated, with other cells treated with the DMSO control, 1 uM DOX or 2.5 uM M2I-1. A void was created in the cell lawn and the number of cells that entered the void were scored as above. This experiment was repeated 4 times. This experiment was also repeated 4 times in an independently generated stable C43-4 cell line with similar results. The error of the mean is shown. C. WT and MDA-MB-231 cells stably expressing the C2-4B peptide plasmid were used for the scratch assay as described above. D. WT and MDA-MB-231 cells stably expressing the C13-3 peptide plasmid were used for the scratch assay as described above. The experiments in C and D were only performed once.
Assays using WT and C43-4 expressing cells have been done 4 times. Assays using C13-3 and C2-4B cells have only been conducted once. Metformin treated cells have been used twice. For scratch assays, a scratch is made down a confluent plate of cells, leaving a void. The number of cells that migrate back into the void over time is determined.

drug resistant lymphoma = experiment: Canine model of drug resistant lymphoma, metformin adjunct therapy; format: in vivo
Protocol: Enrolled companion canines that presented to the Western College of Veterinary Medicine in Saskatoon with lymphoma that had failed CHOP therapy were enrolled in the study. Canine lymphoma is very common, almost always results in a drug resistant form, and is treated identically in humans and canines.
Each week tumor tissue was received to use for western determination of MDR markers and RNA microarrays.
One canine (canine 6) entered remission after failing all other treatment options. RNA was sampled from the MDR tumor, during metformin treatment, during tumor shrinkage and remission and during relapse and microarray analysis was performed.

[2] = tested on: MCF7 breast cancer cells selected for resistance to Tamoxifen; experiment: Cell viability by Trypan Blue, Tamoxifen resistant MCF7 cells; format: cell-based, human
Protocol: (§2) Parental MCF7 human breast cancer cells, or cells selected for resistance to Tamoxifen, were treated with 1 or 5 uM M2I-1. Tamoxifen resistant cells were also treated with both DOX and M2I-1. Cell viability was measured using Trypan Blue staining (3 rpts). B. Protein lysates were prepared from the cells used in A. The APC target HURP was measured using antibodies against HURP. C. Trypan Blue was used to measure viability of parental and DOX resistant OSW canine lymphoma cells pretreated with 1 or 5 μM M2I-1 (18 hrs), followed by 1 μM DOX (48 hrs). Parental cells were only treated with monotherapy (3 rpts). ND, no data. D. OSW matched cells treated with the APC activator M2I-1 were prepared for APC substrate westerns E. Quantification of western protein abundance (3 rpts).
(§3) Human MCF7 breast cancer cells selected for resistance to Tamoxifen were treated with the M2I-1 activator in culture.

APC (substrate HURP) = experiment: APC substrate westerns, Tamoxifen resistant MCF7 cells; format: cell-based, human
Protocol: as §2, §3

[3] = tested on: OSW dog lymphoma cells selected for chemotherapeutic resistance; experiment: Cell viability by Trypan Blue, DOX resistant OSW cells; format: cell-based, canine; details: 1 or 5 μM 18 hrs then 1 μM DOX 48 hrs
Protocol: as §2, §3

[4] = tested on: patient derived xenografted (PDX) tumor; experiment: Patient derived xenograft (4-28 PDX) triple negative breast cancer mouse model; format: in vivo
Excerpt: A. In vivo study of M2I-1 impact on a human patient derived xenografted breast tumor (4-28 PDX). An increased dose of M2I-1 was given to mice harboring implanted 4-28 tumor fragments ([…] i.p. injection (treatment) versus mock (DMSO) day 1, with tumor size measured every other day. B. Western analysis of apoptosis (PARP cleavage—24 kDa band) and APC substrate abundance (Cyclin B) in liver and tumor of treated and control after sacrifice on Day 8.
as §1

wild type (WT) cells = experiment: C43-4 mutant peptides, spot dilution under temperature and UV stress, WT cells; format: cell-based, yeast; details: low level expression on glucose
Protocol: The cells were exposed to 5 sec of UV from a UV box prior to incubation. The plus signs define growth compared to the empty vector control.
Residues 2, 7, 8, 10, 12 and 14 of peptide C43-4 are conserved with Htz1. All of these residues were mutated to alanine (FIG. 10). Peptides that contained mutations designed to determine which amino acids were required for function were generated. These mutant peptides were grown in wild type cells and in cells that had APC10 mutated, under temperature and UV stress conditions (FIGS. 10-12).
These cells were spot diluted on Trp^− plates and grown at the temperatures shown and/or exposed to ultraviolet (UV) irradiation (FIGS. 10-12). At low level expression on glucose, some of the mutations caused stress dependent phenotypes.
• 1. Cells were cultured overnight in Trp^− 2% glucose media • 2. The growth of the cells was determined by measuring the optical density (OD) of the cells at 600 nm (OD600) • 3. Cells were diluted to OD600 of 1 with fresh culture media • 4. 100 ul of each culture was pipetted into a well of a 96 well plate • 5. 10 ul of the each starting culture was pipetted into 90 ul of water in 4 additional wells to make a 10-fold serial spot dilution • 6. 5 ul from each serial dilution was spotted onto plates containing standard growth media with either 2% glucose or 2% galactose using a multi-pipettor • 7. The plates were exposed to UV • 8. […]

apc10Δ cells = experiment: C43-4 mutant peptides, spot dilution under temperature and UV stress, apc10Δ cells; format: cell-based, yeast; details: glucose or galactose
Protocol: The cells were exposed to 5 sec of UV from a UV box prior to incubation.
Expression of the WT and mutant peptides have reduced activity in apc10Δ cells (FIG. 12).
• 1. Cells were cultured overnight in Trp^− 2% glucose media • 2. The growth of the cells was determined by measuring the optical density (OD) of the cells at 600 nm (OD600) • 3. Cells were diluted to OD600 of 1 with fresh culture media • 4. 100 ul of each culture was pipetted into a well of a 96 well plate • 5. 10 ul of the each starting culture was pipetted into 90 ul of water in 4 additional wells to make a 10-fold serial spot dilution • 6. 5 ul from each serial dilution was spotted onto plates containing standard growth media with either 2% glucose or 2% galactose using a multi-pipettor • 7. The plates were exposed to UV • 8. The plates were then placed at room temperature, 30, or 37° C. for 3-7 days • 9. The plates were scanned and saved as tiff files

Apc10 = biological target: T1, Apc10 (Saccharomyces cerevisiae, UniProt P53068); experiment: Yeast 2-hybrid (Y2H) assay, Apc10 bait; format: binding
T1 construct: expressed in transfected cells; host or cells: yeast Y2H cells
T1 sequence (P53068 1-250): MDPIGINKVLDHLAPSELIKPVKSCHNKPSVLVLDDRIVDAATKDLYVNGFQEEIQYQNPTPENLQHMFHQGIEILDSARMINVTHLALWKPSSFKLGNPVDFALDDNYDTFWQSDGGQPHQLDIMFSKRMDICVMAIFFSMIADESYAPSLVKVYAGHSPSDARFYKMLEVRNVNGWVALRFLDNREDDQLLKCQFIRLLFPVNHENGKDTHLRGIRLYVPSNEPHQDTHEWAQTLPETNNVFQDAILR
Protocol: The reverse genetic screen utilized a yeast 2-hybrid (Y2H) protocol that selected for peptides that bound to the APC subunits Apc5 or Apc10 (see FIG. 8 for APC structure), to assess whether peptide-binding might modify APC function. Peptides that bound APC subunits were then assayed for those that suppressed APC mutant defects.
A library of random small peptides were cloned into a Thioredoxin (Trx) scaffold (see FIG. 9 for Trx-peptide structure) and expressed from a galactose-inducible Y2H prey vector in cells expressing the Apc10 bait vector (the modified Apc10 is still part of the complete APC complex). Six peptides that reproducibly interacted with the Apc10 bait construct in Y2H assays were identified (FIG. 1A) and were examined further. Cells will only grow in this assay if the peptide interacts with Apc5 or Apc10.
To identify peptides that bound to either Apc5 or Apc10 proteins using a yeast 2-hybrid (Y2H) screen, random small peptides were cloned into the TrxA scaffold (library provided by R. Geyer; FIG. 9) and expressed from a galactose-inducible Y2H prey vector in cells harboring either the APC5 or APC10 genes cloned into the Y2H bait vectors (APC5/APC10 bait constructs complement APC mutant defects).
Over 100 peptides that bound either Apc5 or Apc10 were recovered from millions screened. Six peptides that reproducibly interacted with the Apc5 or Apc10 bait construct in Y2H assays were examined further. Vectors expressing these 6 peptides were transformed into WT or APC mutant cells and assessed for ts growth.

CN(C)C(=N)N=C(N)N [metformin]
APC substrate Cyclin B protein levels (APC (substrate Cyclin B)): Reduced
multiple drug resistant breast cancer in vitro [1]: prevents and reverses
metastatic potential / in vitro migration (MDA-MB-231 cells): blocked
APC substrate RNA levels (drug resistant lymphoma; canine 6, microarray): reduced APC substrate RNA levels
markers of multiple drug resistance (drug resistant lymphoma; canine tumor tissue, westerns): reverse markers of multiple drug resistance
remission (drug resistant lymphoma; one canine (canine 6)): induced remission

CC(C)CN(CC(C)C)c1ccc(C=C2C(=O)NC(=S)NC2=O)cc1[N+](=O)[O-] [M2I-1, Mad2 Inhibitor-1]
cell killing / toxicity in combination with chemotherapy (DOX) ([2]; Tamoxifen resistant MCF7): only in the presence of M2I-1 were cells killed; also recorded: enhances toxicity
growth / toxicity of activator alone ([2]; Tamoxifen resistant MCF7, 1 or 5 uM, 18 hrs): did not impair the growth; also recorded: not toxic
metastatic potential / in vitro migration (MDA-MB-231 cells): inhibit the in vitro migration
levels of APC substrates (APC (substrate HURP)): reduced the levels of several APC substrates tested
cell killing by chemotherapy only in presence of activator [3]: observed
tumor growth ([4]; PDX TNBC in mice, i.p. injection, various amounts): stalled in these cells in a dose-dependent manner
markers of APC substrates in the tumor ([4]; western, Cyclin B, Day 8): positive for APC activation

NGSSHNDARVRRLTLISRLC [C43-4-3, alanine at position 8 of C43-4]
stress resistance (growth compared to empty vector) (wild type (WT) cells): increased stress resistance further
activity / toxicity of peptide in apc10Δ cells (apc10Δ cells): remained toxic
binds Apc10 in a yeast 2 hybrid assay (Apc10): binds Apc10
